# Source: a melting point compilation (Tetko et al.; mined from patent text by program, amines drawn as free bases though some values may be those of a salt)
row,SMILES,melting point
1,N#Cc1ccc2c(c1)C(c1ncnc3c1cnn3C1CCCC1)C(=O)N2 (stereo unspecified),> 300 °C
2,CCCCCCCCC(SCCCCCC)C(=O)NC1(OC)C=C(C)C=CN1 (stereo unspecified),83 to 85 °C
3,CN1C(=O)C(C(=O)Nc2ccc(F)cc2)S(=O)(=O)c2ccccc21 (stereo unspecified),189 to 192 °C
4,CCOC(=O)c1cnc2n(c1=O)C(C)CCC2C(=S)NC (stereo unspecified),199 to 200 °C
5,O=[N+]([O-])c1ccc(OCCN2CCN(c3nsc4ccccc34)CC2)cc1,115 °C
6,O=C(Oc1ccccc1)Sc1nc2ccccc2n1C1CCN(C(=O)Oc2ccccc2)CC1,200 to 203 °C
7,COc1cc(/C=C/C(=O)/C=C/c2cc(OC)c(OCCO)c(OC)c2)cc(OC)c1OCCO,133 to 135 °C
8,O=C(O)CN(C(=O)Cc1ccc(Cl)c(Cl)c1)[C@H](CN1CC[C@H](O)C1)c1ccccc1,162 to 164 °C
9,CSCCn1cc(Cl)nc(N2CCc3cc(Cl)cc(Cl)c32)c1=O,127 to 128 °C
10,COc1cc(C2CCC(c3cc(OC)c(OC)c(OC)c3)C2N)cc(OC)c1OC (stereo unspecified),117 to 119 °C
11,CCN1CCN(C2=Nc3cc(Cl)ccc3Sc3ccccc32)CC1,100 to 101 °C
12,O[C@@H](c1c[nH]nc1-c1ccccc1)[C@H](CCN1CCC(O)(c2ccccc2)CC1)c1ccc(Cl)c(Cl)c1 (racemic),133 to 135 °C
13,Cc1cc(-c2cc(CN3CCN(C)CC3)c(=O)n(Cc3ccccc3Cl)n2)ccc1F,150 to 151 °C
14,N=C(N)NC1CCC(CCN2CCN(c3ccccc3)CC2)CC1 (stereo unspecified),140 to 170 °C
15,O=C1CC(c2ccccc2Cl)Cc2[nH]nc(-c3ccccc3)c21 (stereo unspecified),218 to 222 °C
16,OCC1OC(n2cnc3c(NCC(c4ccc(Cl)cc4)c4ccc(Cl)cc4)ncnc32)C(O)C1O (stereo unspecified),95 to 120 °C
17,CNc1cc(C(F)(F)F)on1,39 to 41 °C
18,CCCOc1ccc(-c2ccc(OCC(CN3C(=O)NC(C)(C)C3=O)N(O)C=O)cc2)cc1 (stereo unspecified),158 to 160 °C
19,COC(=O)CCCCCc1nn(-c2ccc(F)cc2)c2c1CCC2,39 to 40 °C
20,CSc1nc(NCCC(C)C)c2[nH]nc(C)c2n1,90 to 95 °C
21,Cc1ncc2cc(-c3c(Cl)cccc3Cl)c(N=CN(C)C)nc2n1,236 to 238 °C
22,Cc1nc2c(s1)CN=C(c1ccccc1Cl)c1cc(Cl)ccc1-2,162 to 164 °C
23,O=c1c2ccccc2[nH]c2c(OCCCCN(CCCl)CCCl)cccc12,119 °C
24,CC(C)Nc1nc(Cl)nc(Cl)n1,46 to 47 °C

row,SMILES,melting point
1,Clc1ccc(-c2nc3n(c2Br)CCCC3)c(Cl)c1,112 to 113 °C
2,O=C(N=C1SCCN1Cc1ccc(Cl)nc1)C(F)(F)F,96 °C
3,CNC(=O)N1CCC(Oc2c(F)c(F)c(F)c(F)c2F)(c2ccccc2)CC1,87 to 89 °C
4,COC(Cn1cncn1)(c1ccc(F)cc1F)C(F)(F)S(=O)(=O)CCO (stereo unspecified),108 to 110 °C
5,O=C(C=C1CCCN1)c1ccc(Cl)cc1,146 to 147 °C
6,CN(C)CCC(Oc1ccc(C(F)(F)F)cc1)c1ccccc1 (stereo unspecified),117 to 119 °C
7,CCCCCCOCOc1c(C(C)(C)C)cc(-c2ccc(C#N)c(C#N)c2)cc1C(C)(C)C,106 to 107 °C
8,N#Cc1cc(Oc2ccc(Cl)cc2)ccc1[N+](=O)[O-],120 to 122 °C
9,CC(C)(C)C(=O)Nc1c(F)cc(F)cc1Oc1ccc(C2(C#N)CCCC2)cc1,103 to 105 °C
10,Cn1ccc2cc(-c3csc4ncnc(NCc5ccccn5)c34)ccc21,184 to 185 °C
11,C=CCOC(=O)N1CCCC(OC)C1CC(=O)Cn1cnc2cc(Br)c(Cl)cc2c1=O (stereo unspecified),112 °C
12,CCCCCCN(CC(=O)O)CC(=O)O,130 to 131 °C
13,Cc1nc(NC2CC2)ccc1N1CCCn2c1nc1c(Cl)ccc(C(OC(F)F)C(F)(F)F)c12 (stereo unspecified),168 to 170 °C
14,O=S(=O)(F)C=CNc1ccc(C(F)(F)F)cc1,71 to 73 °C
15,Cc1ccc(F)cc1C1CC(=O)c2c(C)ccnc2C1 (stereo unspecified),113 to 114 °C
16,O=c1cc(-c2ccncc2)nc2n1CC(O)CN2CCCc1ccccc1F (stereo unspecified),305 to 307 °C
17,O=C(Nc1ccc(C(=O)N2C[C@@H]3CCCN3C(=O)c3ccccc32)cc1)c1ccccc1-c1ccccc1,233 to 235 °C
18,CN=C(NC#N)C1=CC(CF)(CF)Oc2ccc(C(F)(F)C(F)(F)F)cc21,178 to 179 °C
19,Cc1nc2cnccc2n1-c1ccc(O)cc1F,294 °C
20,Oc1ccc(Cc2ncc[nH]2)cc1,188 to 190 °C
21,N#Cc1cc(C(=O)N2CCC[C@H](c3nc(-c4ccc(F)cc4)no3)C2)ccc1F,144 to 146 °C
22,Fc1ccc2c(c1)NCc1ccccc1O2,94 °C
23,O=C(Oc1cccc2c(C(=O)c3ccc(F)cc3)c(-c3ccc(OCCN4CCCC4)cc3)sc12)c1ccc(F)cc1,64 to 68 °C

# The next lines start with the values.
row,melting point,SMILES
1,89 to 91 °C,CC1(C)Oc2ccc([N+](=O)[O-])cc2O1
2,86 to 88 °C,CC(=O)OC(C)c1cccc2cc(C(=O)CBr)oc12 (stereo unspecified)
3,187 to 189 °C,COc1cc(C=CC(=O)Nc2c(-c3ccccc3Cl)c3cc(C(C)C)ccc3n(C)c2=O)cc(OC)c1OC(C)=O
4,134 to 136 °C,Cc1ccc(-c2cccc(C(N)=NO)c2)cc1
5,89 to 90 °C,[N-]=[N+]=C1c2ccccc2-c2ccc(F)cc21
6,144 °C,COc1ccc(CCOC(=O)NC(=O)C(c2ccccc2)c2ccccc2)cc1OC
7,190 to 191 °C,CC1(C)OC(c2cccc(S(C)(=O)=O)c2)=C(c2ccccc2)C1=O
8,214 to 217 °C,CCCCC(=O)Oc1c(-c2ccc(-c3ccccc3)cc2)nc2ccc(F)cc2c1C(=O)O
9,75 to 77 °C,CCOC(=O)c1oc(Oc2ccccc2)nc1C(F)(F)F
10,87 to 90 °C,CCCc1c(COc2ccc(Cc3nnn(CC(=O)O)n3)cc2)ccc(C(C)=O)c1O
11,144 °C,CCCc1nc(SC(F)F)c(C(=O)O)n1Cc1ccc(-c2ccccc2S(=O)(=O)NC(=O)NCc2cccc3ccccc23)cc1
12,136 to 138 °C,CCCc1nn(C)c2c(=O)n(CCCOc3ccc(OC(C)(C)C(=O)O)cc3)cnc12
13,142 to 146 °C,COc1cc(NC=CS(=O)(=O)F)c(C(C)=O)cc1OC
14,194 to 197 °C,N#Cc1ccc(OCc2cnsc2)cc1OC(C(=O)O)c1ccccc1Cl (racemic)
15,198 to 200 °C,O=C1CCC(N2C(=O)c3cccc(CNC(=O)c4cc5ccccc5cn4)c3C2=O)C(=O)N1 (stereo unspecified)
16,148 to 149 °C,COC(=O)c1nc(-c2ccc(Cl)cc2F)cc(N)c1Br
17,206 to 208 °C,Cc1c(-c2ccc3sc(=O)n(C)c3c2)nc2ccccn12
18,> 300 °C,O=C1CN2Cc3cc(C(=O)c4ccccc4)ccc3N=C2N1
19,128 to 130 °C,C[C@H](O)CCOc1c(-c2ccc(S(C)(=O)=O)cc2)cnn(-c2ccc(F)c(F)c2)c1=O
20,305 to 306 °C,Nc1ccc(-c2coc3cc(O)c(O)cc3c2=O)cc1
21,136 to 138 °C,Cc1ccc(-c2cccnc2C#N)cc1
22,164 to 167 °C,Cc1c(NC(=O)C(CSC(=O)c2cccs2)Cc2ccccc2)cccc1C(=O)O (stereo unspecified)
23,104 to 106 °C,CC(=O)c1ccc(OCCCCOc2ccccc2)cc1
24,78 to 85 °C,C=CCn1c2ccccc2c2c(N)c(C(=O)OC)c(C)nc21
25,191 to 192 °C,O=c1nc(-c2ccccc2)c2ccsc2n1CC1CC1
26,187 to 189 °C,COc1cc(OC)nc(Oc2ccc3ccccc3c2C(=O)O)n1
27,109 to 111 °C,OCCOc1cccc2ncccc12

row,melting point,SMILES
1,210 to 212 °C,CCSc1nc(-c2ccccc2)cc2nnc(C)n12
2,145 to 146 °C,CCCC(=O)c1cc2c(=O)c(C(=O)OCC)cn(CC)c2cc1C
3,150 to 155 °C,CC(=Cc1ccccc1)c1ncccc1C(N)=O
4,132 to 133 °C,COc1cc(OCC(=O)O)cc2c1C(Cl)=CC1(CCCCC1)O2
5,178 °C,C/C(=C\c1ccc(-c2ccccc2)cc1)C(=O)O
6,114 to 116 °C,CCN1C(=O)Cc2ccc(OC(=O)CCl)cc21
7,195 to 196 °C,N#Cc1ccc(-c2nc(C(F)(F)F)c(C(=O)O)s2)cc1
8,126 to 127 °C,CC(=O)NC[C@H]1CN(c2ccc(N3CC(N(C)CCF)C3)c(F)c2)C(=O)O1
9,81 to 83 °C,CCN(CC)CCCNC(=O)Cn1cnc(-c2ccccc2)c1-c1ccccc1
10,133 to 135 °C,COc1cccc([C@H]2O[C@H](CC(=O)NS(=O)(=O)CCCO)C(=O)N(CC(C)(C)CO)c3ccc(Cl)cc32)c1OC
11,198 °C,CSCCC(NCc1ccccc1N)C(=O)O (stereo unspecified)
12,201 to 203 °C,COC(=O)C=Nc1cc(Cl)ccc1C(=O)O
13,126 °C,CC(C)(C)OC(=O)CN(C(=O)CN1C(=O)c2ccccc2C1=O)c1ccccc1
14,70.5 to 73.5 °C,CCOC(=O)c1ccc(SC)c(Cl)c1N(CC)S(C)(=O)=O
15,151 to 153 °C,COC(=O)NCc1nc(-c2ccc3c(c2)Nc2ccccc2S3)cs1
16,146 to 148 °C,CNc1nc(-c2cccc(NCc3ccccc3)c2)c2cc(OC)c(OC)cc2n1
17,258 °C,COCc1c(C(=O)c2ccccc2)ncc2[nH]c3ccc(O)cc3c12
18,> 250 °C,CCOC(=O)c1c[nH]c2c(=O)ccc(NC(=O)CC)cc2c1=O
19,57 to 58 °C,COC1(c2cccc(OCc3ccc4ccccc4c3)c2)CCCOCC1 (stereo unspecified)
20,224 to 227 °C,CNCC1CN(c2c(F)cc3c(=O)c(C(=O)O)cn(-c4ccc(F)cc4F)c3c2F)CCO1 (stereo unspecified)
21,114 to 115 °C,COC(=O)c1nc(-c2ccc(Cl)cc2)c(F)c(N)c1I
22,106 to 107 °C,Cc1nc(-n2cnn(CCNCc3ccc(F)cc3)c2=O)sc1C(=O)NCc1cccnc1
23,40 °C,COc1cccc(C(=O)c2sccc2Br)c1
24,> 55 °C,CCCCc1nc(C(C)=O)c(C#N)n1Cc1ccc(-c2ccccc2C(=O)O)cc1
25,115 to 117 °C,COc1cc2ccccc2cc1N(C)C(=O)N1CCN(c2cc(F)cc(F)c2)CC1
26,140 to 141 °C,CC(C)c1nn(-c2ccc(C#N)nn2)cc1CCCO
27,138 to 139 °C,CCOc1ccc2c(=O)cc(-c3ccccc3)oc2c1
